18 compounds from PubChem BioAssay (NCI) can be followed below.

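All cell lines were grown in 96-well plates and treated with compound for 48 hours. GI50 marks 50% less growth. TGI is the concentration that stops growth completely.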 Where only a bound is given, the exact number is not on record here.

Common to all, as to experiment: growth of human tumour cells (NCI), 48 h
Experiment [1] has as its system A498 renal.
The test system of experiment [2] is HCC-2998 colon.
The test system of experiment [3] is HCT-15 colon.
Experiment [4] deals with HOP-62 NSCLC.
The subject of experiment [5] is NCI-H226 lung.
Experiment [6] has as its system OVCAR-3 ovarian.
The subject of experiment [7] is RXF 393 renal.
The subject of experiment [8] is SW-620 colon.
For experiment [9], the system named is UACC-257 melanoma.
Experiment [10] deals with UO-31 renal.

`CC[C@@H](O)C[C@H]1CCC[C@@]2(C[C@@H]3OC(=O)/C=C/[C@@](C)(O)[C@@H](O)[C@H](C)[C@@H](O)[C@H](OC4CCC(N(C)C)C(C)O4)[C@@H](O)[C@](C)(O)CCCCC/C=C/[C@@H]4CC(C)(C)O[C@@]4(O)C[C@H](O2)[C@H]3C)O1` (stereo not given in full): the TGI in experiment [1] was determined as 57.4 µM; in experiment [2], 17.5 µM; in experiment [3], 29.2 µM; in experiment [4] it was 26.2 µM; in [5] it was 29.6 µM; in experiment [6] it was 25.5 µM. Moreover, the TGI in [7] was determined as 34.6 µM; in experiment [8], 53.6 µM; in experiment [9] it was 4.82 µM; in [10] it was 18.1 µM.
For the compound `OC(COc1ccccc1)CN1CCCCC1` (stereo not given), the TGI in experiment [1], in experiment [2], in [3], in experiment [4], in [5] and in experiment [6] was over 100 µM throughout. The TGI in [7], in experiment [8], in experiment [9] and in experiment [10] was over 100 µM throughout.
As to `NCCOc1ncccc1/C=C1\c2ccccc2-c2ccc([N+](=O)[O-])cc21`, the GI50 in experiment [1] is 0.158 µM; in [2], 0.137 µM; in experiment [3], 0.0266 µM; in experiment [4], 0.0261 µM; in experiment [5], 0.11 µM; in experiment [6], 0.181 µM. Besides, the GI50 in experiment [7] was 0.171 µM; in [8], 0.0725 µM; in experiment [9] it was 0.209 µM; in experiment [10] it was 0.0439 µM. Also, the TGI in [1] was 0.578 µM; in [2], 0.322 µM; in [3] it was 0.871 µM; in [4], 0.133 µM; in experiment [5], 0.366 µM; in [6], 0.449 µM. The TGI in experiment [7] is 0.443 µM; in experiment [8], 0.834 µM; in experiment [9], 1.39 µM; in [10] it was 0.186 µM.
In the case of `Cc1noc(C)c1-c1cnc2c(-c3ccc(C(=O)O)cc3)cn([C@@H](C)c3ccccn3)c2c1`, the GI50 was 0.196 µM in [1]; 0.966 µM in [2]; 0.418 µM in experiment [3]; 0.555 µM in experiment [4]; 5.02 µM in experiment [5]; 0.959 µM in experiment [6]. The GI50 in experiment [7] was 2.4 µM; in experiment [8], 15.6 µM; in experiment [9], 1.62 µM; in [10], 0.102 µM. In addition, the TGI in experiment [1] was 1.87 µM; in experiment [2], 10.9 µM; in experiment [3], over 100 µM; in experiment [4], over 100 µM; in [5], over 46.6 µM; in [6] it was 32.1 µM. Moreover, the TGI in [7] was 34.6 µM; in [8] it was over 100 µM; in [9], over 100 µM; in experiment [10] it was over 55 µM.
Turning to `COc1ccc2c(c1)O/C(=C\c1cccc(OCC(=O)Nc3nc(C)c(C)s3)c1)C2=O`, the GI50 in experiment [1] is 7.82 µM; in experiment [2], 9.43 µM; in experiment [3] it was 6.76 µM; in experiment [4], 0.542 µM; in experiment [5], over 53 µM; in experiment [6], 0.448 µM. For the same compound, the GI50 was 1.06 µM in experiment [7], 2.86 µM in [8], over 100 µM in experiment [9] and 0.547 µM in [10]. Further, the TGI in experiment [1] is over 68.4 µM; in [2], over 100 µM; in experiment [3], over 100 µM; in experiment [4], 1.13 µM; in [5], over 100 µM; in experiment [6], 1.05 µM. Also, the TGI was 2.75 µM in experiment [7], over 26.8 µM in [8], over 100 µM in experiment [9] and 1.02 µM in experiment [10].
Take `COC(=O)CCC(=O)N1CC1C` (stereo not given): the TGI in experiment [1], in experiment [2], in experiment [3], in experiment [4], in [5] and in experiment [6] was over 100 µM throughout. Further, the TGI in [7], in experiment [8], in [9] and in [10] was over 100 µM throughout.
As for `CC(C)C(=S)N(C)O`, the TGI in experiment [1] was 63.1 µM; in experiment [2] it was over 100 µM; in [3], over 100 µM; in [4], over 93.3 µM; in [5], over 100 µM; in experiment [6], over 100 µM. Also, the TGI in [7] is over 100 µM; in experiment [8], over 61.5 µM; in experiment [9] it was over 100 µM; in experiment [10], 50.2 µM.
Consider `C/C(=N\NC(N)=S)c1sc(-n2nc(-c3ccccc3)cc2-c2ccccc2)nc1C`, for which the TGI in experiment [1], in experiment [2], in [3], in experiment [4], in experiment [5] and in experiment [6] was over 100 µM each time. The TGI in experiment [7], in [8], in [9] and in experiment [10] was over 100 µM throughout.
Turning to `O=C1C=C(Nc2ccc(S(=O)(=O)Nc3ncccn3)cc2)c2ccccc2C1=O`, the TGI was found to be 69.4 µM in experiment [1]; 36.6 µM in experiment [2]; 47 µM in [3]; 54.6 µM in [4]; 56.8 µM in experiment [5]; 30.5 µM in experiment [6]. Besides, the TGI in experiment [7] turned out to be 48 µM; in [8] it was 35.1 µM; in experiment [9] it was 41.7 µM; in [10], 57.5 µM.
With `Oc1c(O)c(Cl)c(Cl)c(Cl)c1Cl`, the GI50 in experiment [1] is 2.67 µM; in [2], 16.3 µM; in experiment [3] it was 3.56 µM; in [4], 4.54 µM; in experiment [5] it was 4.62 µM; in [6], 2.44 µM. For the same compound, the GI50 in [7] is 1.61 µM; in experiment [8], 3.17 µM; in experiment [9] it was 2.92 µM; in experiment [10] it was 2.74 µM. The TGI in experiment [1] worked out at 8.92 µM; in experiment [2], 30.7 µM; in experiment [3] it was 19.4 µM; in experiment [4], 17.3 µM; in experiment [5], 24.3 µM; in [6], 14.4 µM. The TGI in [7] was determined as 13.9 µM; in experiment [8] it was 30.3 µM; in experiment [9] it was 9.6 µM; in experiment [10], 13.1 µM.
As to `CCC[CH2][Sn]([CH2]CCC)([O]C(=O)c1cccc(F)c1F)[O]C(=O)c1cccc(F)c1F`, the GI50 in experiment [1] was 1.15 µM; in [2], 1.63 µM; in experiment [3], 1.25 µM; in [4], 2.94 µM; in experiment [5], 1.25 µM; in [6] it was 1.37 µM. For the same compound, the GI50 in experiment [7] is 0.321 µM; in experiment [8] it was 0.472 µM; in experiment [9], 1.09 µM; in [10], 1.56 µM. Moreover, the TGI in [1] stood at 2.39 µM; in [2], 2.98 µM; in experiment [3], 2.51 µM; in experiment [4] it was 4.5 µM; in experiment [5] it was 2.52 µM; in experiment [6] it was 2.68 µM. In addition, the TGI is 1.22 µM in experiment [7], 1.67 µM in [8], 2.28 µM in experiment [9] and 2.92 µM in experiment [10].
On to `CCOC(=O)C#Cc1c(C(=O)OCC)nnn1[C@@H]1O[C@H](CO)[C@H]2OC3(CCCCC3)O[C@H]21`, for which the GI50 in experiment [1] was 17.6 µM; in [2], 18 µM; in experiment [3] it was 1.87 µM; in experiment [4], 17.7 µM; in experiment [5], 1.72 µM; in [6] it was 1.7 µM. The GI50 in experiment [7] was 1.8 µM; in [8], 1.81 µM; in experiment [9], 2.93 µM; in experiment [10], 1.67 µM. Moreover, the TGI in experiment [1] came to 31.8 µM; in experiment [2], 32.8 µM; in experiment [3], 3.53 µM; in experiment [4], 33.7 µM; in [5] it was 3.17 µM; in experiment [6], 3.21 µM. Also, the TGI came out at 3.46 µM in [7], 3.64 µM in experiment [8], 7.52 µM in experiment [9] and 3.28 µM in experiment [10].
Turning to `O=C(Oc1ccccc1)C(Br)C(Br)c1ccccc1` (stereo not given), the GI50 is 10.5 µM in [1]; 11.8 µM in [2]; 2.32 µM in experiment [3]; 14.5 µM in [4]; 5 µM in experiment [5]; 1.72 µM in experiment [6]. For the same compound, the GI50 was 1.74 µM in experiment [7], 1.74 µM in experiment [8], 2.06 µM in [9] and 1.72 µM in [10]. Moreover, the TGI in experiment [1] came out at 22.4 µM; in experiment [2] it was 24.7 µM; in [3] it was 6.24 µM; in [4], 28.3 µM; in experiment [5] it was 18.7 µM; in [6], 3.14 µM. Further, the TGI was determined as 3.23 µM in experiment [7], 3.29 µM in experiment [8], 4.8 µM in experiment [9] and 3.34 µM in [10].
As to `Nc1nc2c(ccc3ccccc32)s1`, the GI50 is 74.1 µM in experiment [1]; 50.6 µM in experiment [2]; over 100 µM in experiment [3]; over 100 µM in experiment [4]; over 100 µM in experiment [5]; 43.4 µM in experiment [6]. The GI50 in [7] was 37.2 µM; in experiment [8], over 100 µM; in experiment [9] it was over 100 µM; in experiment [10], 74.3 µM. Further, the TGI in experiment [1], in [2], in experiment [3], in experiment [4], in experiment [5] and in [6] was over 100 µM in each case. Also, the TGI in experiment [7], in experiment [8], in [9] and in experiment [10] was over 100 µM throughout.
In the case of `C=C1C(=O)O[C@H]2[C@H]1CC/C(COC(=O)NCCc1cccc(OC)c1)=C\CC[C@@]1(C)O[C@@H]21`, the GI50 in experiment [1] is 2.35 µM; in [2], 1.68 µM; in [3] it was 1.02 µM; in experiment [4] it was 4.39 µM; in experiment [5], 1.57 µM; in experiment [6] it was 0.995 µM. Moreover, the GI50 in [7] is 0.673 µM; in experiment [8] it was 0.502 µM; in [9] it was 1.53 µM; in experiment [10], 1.39 µM. In addition, the TGI came to 7.76 µM in experiment [1]; 3.29 µM in experiment [2]; 2.62 µM in experiment [3]; 16.6 µM in experiment [4]; 3.6 µM in experiment [5]; 2.38 µM in [6]. Besides, the TGI in [7] amounted to 2.38 µM; in experiment [8], 2.01 µM; in [9], 3.4 µM; in experiment [10], 2.86 µM.
Take `COc1cc(NC(C)CCCNC(C)C)c2ncccc2c1OC` (stereo not given): the GI50 is 0.416 µM in experiment [1]; over 100 µM in experiment [2]; over 100 µM in experiment [3]; over 100 µM in experiment [4]; over 100 µM in experiment [5]; 6.47 µM in experiment [6]. The GI50 was over 100 µM in [7], 97.1 µM in [8], over 100 µM in experiment [9] and 5.29 µM in [10]. For the same compound, the TGI in experiment [1] was over 100 µM; in [2], over 100 µM; in [3], over 100 µM; in [4], over 100 µM; in experiment [5] it was over 100 µM; in [6], 51 µM. The TGI in [7], in [8], in [9] and in [10] was over 100 µM throughout.
As to `O=C(N/C(=C/c1cccc([N+](=O)[O-])c1)c1nc2ccc(Cl)cc2[nH]1)c1ccccc1`, the TGI in [1] was 66.2 µM; in experiment [2], 70.4 µM; in experiment [3], over 100 µM; in experiment [4] it was 62.5 µM; in [5], over 100 µM; in [6], 76.6 µM. Also, the TGI in [7] is 39.9 µM; in experiment [8], 22.8 µM; in experiment [9], over 100 µM; in [10] it was 17.2 µM.
Take `CCn1c(=N)sc2nc3ccccc3n2c1=O`: the TGI in [1], in experiment [2], in experiment [3], in experiment [4], in [5] and in [6] was over 100 µM in each case. Further, the TGI is over 100 µM in experiment [7], over 100 µM in experiment [8], over 100 µM in experiment [9] and 33.3 µM in experiment [10].
